According to publication PMC11435058, “Synthesis of New Thiazole-Privileged Chalcones as Tubulin Polymerization Inhibitors with Potential Anticancer Activities” (Pharmaceuticals, 2024):

Assays:
NCI-H226 = assay: NCI-60 anticancer screen (SRB; single dose and five doses); conditions: Homo sapiens
NCI-H322M = assay: as above; conditions: Homo sapiens
CAKI-1 = assay: as above; conditions: Homo sapiens
SW-620 = assay: as above; conditions: Homo sapiens
SNB-75 = assay: as above
RPMI-8226 = assay: as above; conditions: Homo sapiens
UO-31 = assay: as above; conditions: Homo sapiens
SR = assay: as above; conditions: Homo sapiens
BT-549 = assay: as above; conditions: Homo sapiens
M14 = assay: as above; conditions: Homo sapiens
MALME-3M = assay: as above; conditions: Homo sapiens
HCT-15 = assay: as above; conditions: Homo sapiens
OVCAR-3 = assay: cells; conditions: Homo sapiens
SK-OV-3 = assay: NCI-60 anticancer screen (SRB; single dose and five doses); conditions: Homo sapiens
OVCAR-4 = assay: as above; conditions: Homo sapiens
[1] = 48 h, read-out: Growth Percentage

`Cc1[nH]c(=S)sc1C(=O)/C=C/c1cccc(Cl)c1` [2e, (E)-3-(3-Chlorophenyl)-1-(4-Methyl-2-Thioxo-2,3-Dihydrothiazol-5-yl)Prop-2-En-1-One] was tested, and the activity at 10 µM (NCI-H226; NCI-H226, 48 h, read-out: Growth Percentage) was 32.7%, the CC50 (NCI-H226; NCI-H226, read-out: LC50) was > 100 µM and the IC (TGI) (NCI-H226; NCI-H226, read-out: TGI) was 38.9 µM. For the same compound, the GI50 (NCI-H322M) was 6.03 µM, the IC50 (NCI-H322M) was 16.2 µM and the activity at 10 µM (NCI-H322M; [1]) was 50.1%. It also gave a CC50 (NCI-H322M; read-out: LC50) of 85.1 µM, an IC (TGI) (NCI-H322M; read-out: TGI) of 26.3 µM and a GI50 (CAKI-1; CAKI-1) of 4.68 µM. The IC50 (CAKI-1; CAKI-1) was 15.5 µM, the activity at 10 µM (CAKI-1; CAKI-1, 48 h, read-out: Growth Percentage) was 23.9% and the CC50 (CAKI-1; CAKI-1, read-out: LC50) was 69.2 µM. It also gave an IC (TGI) (CAKI-1; CAKI-1, read-out: TGI) of 20.9 µM, a GI50 (SW-620; SW-620) of 1.91 µM and an IC50 (SW-620; SW-620) of 3.16 µM. It also gave an activity at 10 µM (SW-620; SW-620, 48 h, read-out: Growth Percentage) of 8.6%, a CC50 (SW-620; SW-620, read-out: LC50) of 7.59 µM and an IC (TGI) (SW-620; SW-620, read-out: TGI) of 3.8 µM. It also gave a GI50 (SNB-75; Homo sapiens, SNB-75) of 1.66 µM, an IC50 (SNB-75; Homo sapiens, SNB-75) of 3.8 µM and an activity at 10 µM (SNB-75; Homo sapiens, SNB-75, 48 h, read-out: Growth Percentage) of 8.74%. For the same compound, the TGI (SNB-75; five-dose, CNS Cancer SNB-75) was 3.63 µM, the GI50 (RPMI-8226; RPMI-8226) was 2.04 µM and the IC50 (RPMI-8226; RPMI-8226) was 3.72 µM. The activity at 10 µM (RPMI-8226; RPMI-8226, 48 h, read-out: Growth Percentage) was 10.4%, the CC50 (RPMI-8226; RPMI-8226, read-out: LC50) was > 100 µM and the IC (TGI) (RPMI-8226; RPMI-8226, read-out: TGI) was 5.5 µM. For the same compound, the GI50 (UO-31; UO-31) was 1.55 µM, the IC50 (UO-31; UO-31) was 2.88 µM and the activity at 10 µM (UO-31; UO-31, 48 h, read-out: Growth Percentage) was 34.3%. For the same compound, the IC (TGI) (UO-31; UO-31, read-out: TGI) was 3.09 µM, the GI50 (SR) was 2.63 µM and the IC50 (SR) was 3.89 µM. The activity at 10 µM (SR; [1]) was 3.42%, the CC50 (SR; read-out: LC50) was > 100 µM and the IC (TGI) (SR; read-out: TGI) was > 100 µM. For the same compound, the GI50 (BT-549; BT-549) was 2.24 µM, the IC50 (BT-549; BT-549) was 5.89 µM and the activity at 10 µM (BT-549; BT-549, 48 h, read-out: Growth Percentage) was 2.28%. The IC (TGI) (BT-549; BT-549, read-out: TGI) was 6.17 µM, the GI50 (M14; M14) was 2.88 µM and the IC50 (M14; M14) was 4.17 µM. The activity at 10 µM (M14; M14, 48 h, read-out: Growth Percentage) was 40.2%, the IC (TGI) (M14; M14, read-out: TGI) was 9.55 µM and the GI50 (MALME-3M) was 2.24 µM. It also gave an IC50 (MALME-3M) of 5.13 µM, an activity at 10 µM (MALME-3M; [1]) of 86.9% and a CC50 (MALME-3M; read-out: LC50) of 50.1 µM. For the same compound, the IC (TGI) (MALME-3M; read-out: TGI) was 5.75 µM, the GI50 (HCT-15; HCT-15) was 2.09 µM and the IC50 (HCT-15; HCT-15) was 3.55 µM. For the same compound, the activity at 10 µM (HCT-15; HCT-15, 48 h, read-out: Growth Percentage) was -22%, the CC50 (HCT-15; HCT-15, read-out: LC50) was 46.8 µM and the IC (TGI) (HCT-15; HCT-15, read-out: TGI) was 5.89 µM. It also gave a GI50 (OVCAR-3; OVCAR-3) of 2.29 µM, an IC50 (OVCAR-3; OVCAR-3) of 4.17 µM and an activity at 10 µM (OVCAR-3; OVCAR-3, 48 h, read-out: Growth Percentage) of 8.26%. For the same compound, the CC50 (OVCAR-3; OVCAR-3, read-out: LC50) was 22.9 µM, the IC (TGI) (OVCAR-3; OVCAR-3, read-out: TGI) was 6.03 µM and the GI50 (SK-OV-3; SK-OV-3) was 17.4 µM. For the same compound, the IC50 (SK-OV-3; SK-OV-3) was 51.3 µM, the activity at 10 µM (SK-OV-3; SK-OV-3, 48 h, read-out: Growth Percentage) was 59.9% and the CC50 (SK-OV-3; SK-OV-3, read-out: LC50) was > 100 µM. The IC (TGI) (SK-OV-3; SK-OV-3, read-out: TGI) was > 100 µM, the GI50 (OVCAR-4; OVCAR-4) was 4.47 µM and the IC50 (OVCAR-4; OVCAR-4) was 12.9 µM. The activity at 10 µM (OVCAR-4; OVCAR-4, 48 h, read-out: Growth Percentage) was 31.7%, the CC50 (OVCAR-4; OVCAR-4, read-out: LC50) was > 100 µM and the IC (TGI) (OVCAR-4; OVCAR-4, read-out: TGI) was 41.7 µM.
